pIC50, pKd: −log10 of the molar value. Each block holds one molecule with its values, some of them ahead of it.
Experiments:
[1] = target: HIPK1 (human) (UniProt Q86Z02); assay: SelectScreen, TR FRET
[2] = target: HIPK2 (human) (UniProt Q9H2X6); assay: SelectScreen, TR FRET
[3] = target: TTK (human) (UniProt P33981); assay: KINOMEscan competition binding; settings: for kinase still bound, per cent of control: compound 10.0 µM
[4] = target: RPS6KA2 KD2 (human) (UniProt Q15349); assay: KINOMEscan competition binding; settings: compound 10.0 µM
[5] = target: MYLK (human) (UniProt Q15746); assay: KINOMEscan competition binding; settings: compound 10.0 µM
[6] = target: CHEK1 (human) (UniProt O14757); assay: KINOMEscan competition binding; settings: compound 10.0 µM
[7] = target: STK33 (human) (UniProt Q9BYT3); assay: KINOMEscan competition binding; settings: compound 10.0 µM
[8] = target: PLK4 (human) (UniProt O00444); assay: KINOMEscan competition binding; settings: compound 10.0 µM
[9] = system: EIF2AK4 KD2 (human), Q9P2K8 [S808G]; assay: KINOMEscan competition binding; settings: compound 10.0 µM
[10] = target: PLK3 (human) (UniProt Q9H4B4); assay: KINOMEscan competition binding; settings: compound 10.0 µM
[11] = target: GAK (human) (UniProt O14976); assay: KINOMEscan competition binding; settings: compound 10.0 µM
[12] = target: PLK1 (human) (UniProt P53350); assay: KINOMEscan competition binding; settings: compound 10.0 µM
[13] = target: PRKD1 (human) (UniProt Q15139); assay: KINOMEscan competition binding; settings: compound 10.0 µM
[14] = target: DCLK2 (human) (UniProt Q8N568); assay: KINOMEscan competition binding; settings: compound 10.0 µM
[15] = target: RPS6KA1 KD2 (human) (UniProt Q15418); assay: KINOMEscan competition binding; settings: compound 10.0 µM
[16] = target: RPS6KA6 KD2 (human) (UniProt Q9UK32); assay: KINOMEscan competition binding; settings: compound 10.0 µM
[17] = target: PRKD2 (human) (UniProt Q9BZL6); assay: KINOMEscan competition binding; settings: compound 10.0 µM
[18] = target: RPS6KA4 KD2 (human) (UniProt O75676); assay: KINOMEscan competition binding; settings: compound 10.0 µM
[19] = target: DCLK1 (human) (UniProt O15075); assay: KINOMEscan competition binding; settings: compound 10.0 µM
[20] = target: PIM2 (human) (UniProt Q9P1W9); assay: SelectScreen, TR FRET
[21] = target: PIM1 (human) (UniProt P11309); assay: SelectScreen, TR FRET
[22] = target: TAOK1 (human) (UniProt Q7L7X3); assay: KINOMEscan competition binding; settings: compound 10.0 µM
[23] = target: STK17A (human) (UniProt Q9UEE5); assay: KINOMEscan competition binding; settings: compound 10.0 µM
[24] = target: PIM2 (human) (UniProt Q9P1W9); assay: KINOMEscan competition binding; settings: compound 10.0 µM
[25] = target: CDK7 (human) (UniProt P50613); assay: KINOMEscan competition binding; settings: compound 10.0 µM
[26] = target: CSNK2A1 (human) (UniProt P68400); assay: KINOMEscan competition binding; settings: compound 10.0 µM
[27] = target: CLK2 (human) (UniProt P49760); assay: KINOMEscan competition binding; settings: compound 10.0 µM
[28] = target: HIPK1 (human) (UniProt Q86Z02); assay: KINOMEscan competition binding; settings: compound 10.0 µM
[29] = target: TAOK3 (human) (UniProt Q9H2K8); assay: KINOMEscan competition binding; settings: compound 10.0 µM
[30] = system: PIK3CA (human), P42336 [E545K]; assay: KINOMEscan competition binding; settings: compound 10.0 µM
[31] = target: MINK1 (human) (UniProt Q8N4C8); assay: KINOMEscan competition binding; settings: compound 10.0 µM
[32] = target: TGFBR2 (human) (UniProt P37173); assay: KINOMEscan competition binding; settings: compound 10.0 µM
[33] = target: CLK4 (human) (UniProt Q9HAZ1); assay: KINOMEscan competition binding; settings: compound 10.0 µM
[34] = target: PIM1 (human) (UniProt P11309); assay: KINOMEscan competition binding; settings: compound 10.0 µM
[35] = target: STK17B (human) (UniProt O94768); assay: KINOMEscan competition binding; settings: compound 10.0 µM
[36] = target: PIM3 (human) (UniProt Q86V86); assay: KINOMEscan competition binding; settings: compound 10.0 µM
[37] = target: DAPK2 (human) (UniProt Q9UIK4); assay: KINOMEscan competition binding; settings: compound 10.0 µM
[38] = target: CAMKK1 (human) (UniProt Q8N5S9); assay: KINOMEscan competition binding; settings: compound 10.0 µM
[39] = target: CLK1 (human) (UniProt P49759); assay: KINOMEscan competition binding; settings: compound 10.0 µM
[40] = target: MAPK15 (human) (UniProt Q8TD08); assay: KINOMEscan competition binding; settings: compound 10.0 µM
[41] = target: DYRK1B (human) (UniProt Q9Y463); assay: KINOMEscan competition binding; settings: compound 10.0 µM
[42] = target: TTK (human) (UniProt P33981); assay: SelectScreen, TR FRET
[43] = system: EGFR (human), P00533 [A750P; 747-749 del]; assay: KINOMEscan competition binding; settings: compound 10.0 µM
[44] = target: TNK1 (human) (UniProt Q13470); assay: KINOMEscan competition binding; settings: compound 10.0 µM
[45] = system: EGFR (human), P00533 [P753S; 747-752 del]; assay: KINOMEscan competition binding; settings: compound 10.0 µM
[46] = system: EGFR (human), P00533 [752-759 del]; assay: KINOMEscan competition binding; settings: compound 10.0 µM
[47] = target: PTK2B (human) (UniProt Q14289); assay: KINOMEscan competition binding; settings: compound 10.0 µM
[48] = target: PTK2 (human) (UniProt Q05397); assay: KINOMEscan competition binding; settings: compound 10.0 µM
[49] = system: EGFR (human), P00533 [G719C; 746-750 del]; assay: KINOMEscan competition binding; settings: compound 10.0 µM
[50] = system: EGFR (human), P00533 [747-751 del / S ins]; assay: KINOMEscan competition binding; settings: compound 10.0 µM
[51] = target: PIK3CG (human) (UniProt P48736); assay: KINOMEscan competition binding; settings: compound 10.0 µM
[52] = target: CSNK2A2 (human) (UniProt P19784); assay: KINOMEscan competition binding; settings: compound 10.0 µM

Sequence of TTK (human) (P33981 whole entry, looked up): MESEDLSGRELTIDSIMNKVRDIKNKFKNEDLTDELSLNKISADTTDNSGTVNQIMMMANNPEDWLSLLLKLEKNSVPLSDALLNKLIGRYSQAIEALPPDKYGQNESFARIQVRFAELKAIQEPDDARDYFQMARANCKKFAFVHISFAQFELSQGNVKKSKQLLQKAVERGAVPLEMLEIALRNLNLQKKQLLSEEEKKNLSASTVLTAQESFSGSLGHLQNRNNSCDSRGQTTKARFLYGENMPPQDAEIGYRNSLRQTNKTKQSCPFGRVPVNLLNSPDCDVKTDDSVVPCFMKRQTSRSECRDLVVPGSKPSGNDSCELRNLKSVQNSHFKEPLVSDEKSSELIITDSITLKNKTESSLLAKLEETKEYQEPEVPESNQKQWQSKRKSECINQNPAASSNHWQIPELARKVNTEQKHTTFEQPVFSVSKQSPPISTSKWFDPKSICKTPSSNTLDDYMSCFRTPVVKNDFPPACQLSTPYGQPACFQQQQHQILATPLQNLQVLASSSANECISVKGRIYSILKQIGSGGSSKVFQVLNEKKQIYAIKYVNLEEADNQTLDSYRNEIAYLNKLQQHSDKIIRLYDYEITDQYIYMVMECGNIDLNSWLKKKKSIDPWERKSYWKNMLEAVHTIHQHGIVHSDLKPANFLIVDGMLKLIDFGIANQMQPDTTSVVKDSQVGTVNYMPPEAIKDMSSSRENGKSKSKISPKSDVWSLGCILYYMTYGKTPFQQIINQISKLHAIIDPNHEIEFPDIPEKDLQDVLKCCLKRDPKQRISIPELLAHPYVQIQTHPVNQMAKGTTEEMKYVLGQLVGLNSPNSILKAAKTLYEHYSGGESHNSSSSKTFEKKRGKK
Sequence of PIM2 (human) (Q9P1W9 whole entry, looked up): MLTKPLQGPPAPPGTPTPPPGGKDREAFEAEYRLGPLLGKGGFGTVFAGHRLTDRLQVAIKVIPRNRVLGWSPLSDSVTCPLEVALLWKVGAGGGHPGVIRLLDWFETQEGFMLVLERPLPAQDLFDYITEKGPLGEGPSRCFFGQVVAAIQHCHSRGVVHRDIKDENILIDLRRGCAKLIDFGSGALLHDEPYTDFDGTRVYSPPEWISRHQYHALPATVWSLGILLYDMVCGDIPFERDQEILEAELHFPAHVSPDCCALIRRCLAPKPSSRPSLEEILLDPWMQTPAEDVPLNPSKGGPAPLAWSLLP
Sequence of HIPK2 (human) (Q9H2X6 whole entry, looked up): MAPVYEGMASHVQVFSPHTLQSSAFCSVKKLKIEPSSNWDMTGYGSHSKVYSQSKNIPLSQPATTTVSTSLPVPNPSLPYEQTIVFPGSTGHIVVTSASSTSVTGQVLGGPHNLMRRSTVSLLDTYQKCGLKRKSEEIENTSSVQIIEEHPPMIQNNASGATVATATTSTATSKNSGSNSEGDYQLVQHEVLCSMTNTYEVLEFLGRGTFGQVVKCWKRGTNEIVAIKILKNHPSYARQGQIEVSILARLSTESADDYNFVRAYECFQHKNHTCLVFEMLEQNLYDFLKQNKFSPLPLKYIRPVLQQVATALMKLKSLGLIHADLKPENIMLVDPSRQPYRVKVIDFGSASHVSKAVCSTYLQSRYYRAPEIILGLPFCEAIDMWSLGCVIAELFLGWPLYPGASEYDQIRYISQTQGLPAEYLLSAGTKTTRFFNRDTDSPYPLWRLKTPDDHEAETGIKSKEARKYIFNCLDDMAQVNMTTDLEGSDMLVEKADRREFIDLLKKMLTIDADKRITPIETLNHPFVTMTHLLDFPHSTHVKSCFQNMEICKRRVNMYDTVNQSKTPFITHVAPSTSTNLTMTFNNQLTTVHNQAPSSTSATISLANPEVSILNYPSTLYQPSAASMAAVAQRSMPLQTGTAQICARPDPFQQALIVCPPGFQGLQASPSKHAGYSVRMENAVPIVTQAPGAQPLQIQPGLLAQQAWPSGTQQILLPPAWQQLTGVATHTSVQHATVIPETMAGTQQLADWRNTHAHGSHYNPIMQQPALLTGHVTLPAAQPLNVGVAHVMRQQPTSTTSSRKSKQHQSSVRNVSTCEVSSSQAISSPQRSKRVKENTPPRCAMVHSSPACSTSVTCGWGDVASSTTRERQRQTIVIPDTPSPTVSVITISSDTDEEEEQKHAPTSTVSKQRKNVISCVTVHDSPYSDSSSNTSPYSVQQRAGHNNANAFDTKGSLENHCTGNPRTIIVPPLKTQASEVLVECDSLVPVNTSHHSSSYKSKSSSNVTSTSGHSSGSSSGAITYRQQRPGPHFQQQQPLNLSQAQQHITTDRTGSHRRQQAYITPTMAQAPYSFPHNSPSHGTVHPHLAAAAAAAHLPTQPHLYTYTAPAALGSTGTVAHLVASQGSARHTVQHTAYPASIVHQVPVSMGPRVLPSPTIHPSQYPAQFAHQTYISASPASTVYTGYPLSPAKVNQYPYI
Sequence of HIPK1 (human) (Q86Z02 whole entry, looked up): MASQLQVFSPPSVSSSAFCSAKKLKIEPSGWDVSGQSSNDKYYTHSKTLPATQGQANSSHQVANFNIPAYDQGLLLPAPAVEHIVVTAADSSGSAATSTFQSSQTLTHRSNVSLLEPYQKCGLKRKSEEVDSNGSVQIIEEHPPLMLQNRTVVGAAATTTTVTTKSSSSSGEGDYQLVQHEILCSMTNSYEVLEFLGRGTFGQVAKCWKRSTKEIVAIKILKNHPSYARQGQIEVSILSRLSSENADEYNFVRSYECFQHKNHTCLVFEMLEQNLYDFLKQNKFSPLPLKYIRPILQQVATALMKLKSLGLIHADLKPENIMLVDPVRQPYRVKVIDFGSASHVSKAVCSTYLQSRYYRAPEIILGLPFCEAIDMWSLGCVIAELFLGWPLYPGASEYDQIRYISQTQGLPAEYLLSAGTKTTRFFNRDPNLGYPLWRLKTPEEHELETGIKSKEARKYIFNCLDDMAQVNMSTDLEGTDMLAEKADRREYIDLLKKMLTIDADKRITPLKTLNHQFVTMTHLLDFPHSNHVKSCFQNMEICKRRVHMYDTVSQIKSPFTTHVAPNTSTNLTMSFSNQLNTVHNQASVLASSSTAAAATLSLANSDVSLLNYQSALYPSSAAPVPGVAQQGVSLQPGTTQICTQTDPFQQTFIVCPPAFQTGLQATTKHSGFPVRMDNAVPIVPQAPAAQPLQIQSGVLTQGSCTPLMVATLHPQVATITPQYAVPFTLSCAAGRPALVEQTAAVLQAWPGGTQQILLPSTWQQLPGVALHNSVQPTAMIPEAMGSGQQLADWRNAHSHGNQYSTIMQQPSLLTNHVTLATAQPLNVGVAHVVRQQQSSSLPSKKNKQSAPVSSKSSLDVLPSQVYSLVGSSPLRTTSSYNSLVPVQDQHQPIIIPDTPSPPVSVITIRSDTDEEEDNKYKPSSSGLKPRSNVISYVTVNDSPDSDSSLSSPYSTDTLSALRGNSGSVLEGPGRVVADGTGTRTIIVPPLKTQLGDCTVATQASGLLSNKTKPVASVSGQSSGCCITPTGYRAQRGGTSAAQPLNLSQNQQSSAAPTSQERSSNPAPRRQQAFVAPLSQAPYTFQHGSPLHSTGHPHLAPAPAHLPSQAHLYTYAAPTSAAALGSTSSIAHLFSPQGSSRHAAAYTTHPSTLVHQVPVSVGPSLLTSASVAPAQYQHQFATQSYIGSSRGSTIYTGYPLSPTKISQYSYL
Sequence of PIM1 (human) (P11309 whole entry, looked up): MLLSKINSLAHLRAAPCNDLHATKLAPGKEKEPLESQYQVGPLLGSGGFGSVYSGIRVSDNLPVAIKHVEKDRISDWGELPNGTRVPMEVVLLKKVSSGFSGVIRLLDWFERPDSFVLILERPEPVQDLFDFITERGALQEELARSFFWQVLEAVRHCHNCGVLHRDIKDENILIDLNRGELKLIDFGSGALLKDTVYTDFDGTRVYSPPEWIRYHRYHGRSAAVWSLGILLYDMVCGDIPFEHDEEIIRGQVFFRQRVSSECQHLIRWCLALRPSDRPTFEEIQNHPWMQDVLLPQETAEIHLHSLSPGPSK
Sequence of RPS6KA4 KD2 (human) (O75676 whole entry, looked up): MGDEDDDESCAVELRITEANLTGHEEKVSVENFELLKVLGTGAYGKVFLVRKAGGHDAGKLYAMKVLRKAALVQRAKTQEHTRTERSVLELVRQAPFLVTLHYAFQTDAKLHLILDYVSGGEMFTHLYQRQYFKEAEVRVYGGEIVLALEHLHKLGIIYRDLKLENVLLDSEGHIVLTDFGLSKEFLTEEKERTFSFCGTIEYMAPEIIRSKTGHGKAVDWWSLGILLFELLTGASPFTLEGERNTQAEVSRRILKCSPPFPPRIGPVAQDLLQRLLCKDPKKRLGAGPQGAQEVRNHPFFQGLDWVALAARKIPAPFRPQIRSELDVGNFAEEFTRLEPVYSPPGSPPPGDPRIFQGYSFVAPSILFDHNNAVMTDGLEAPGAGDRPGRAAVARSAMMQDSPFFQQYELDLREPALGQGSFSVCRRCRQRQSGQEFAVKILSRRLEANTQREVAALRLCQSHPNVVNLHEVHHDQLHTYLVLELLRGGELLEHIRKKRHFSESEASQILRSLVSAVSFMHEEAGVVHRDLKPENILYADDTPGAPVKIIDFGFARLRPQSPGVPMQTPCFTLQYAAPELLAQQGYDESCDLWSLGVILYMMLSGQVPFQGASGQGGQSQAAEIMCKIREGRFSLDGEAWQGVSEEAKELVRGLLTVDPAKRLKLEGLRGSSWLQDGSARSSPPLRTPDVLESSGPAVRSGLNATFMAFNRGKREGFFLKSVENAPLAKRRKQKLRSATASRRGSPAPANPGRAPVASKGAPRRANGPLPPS
Sequence of STK17A (human) (Q9UEE5 whole entry, looked up): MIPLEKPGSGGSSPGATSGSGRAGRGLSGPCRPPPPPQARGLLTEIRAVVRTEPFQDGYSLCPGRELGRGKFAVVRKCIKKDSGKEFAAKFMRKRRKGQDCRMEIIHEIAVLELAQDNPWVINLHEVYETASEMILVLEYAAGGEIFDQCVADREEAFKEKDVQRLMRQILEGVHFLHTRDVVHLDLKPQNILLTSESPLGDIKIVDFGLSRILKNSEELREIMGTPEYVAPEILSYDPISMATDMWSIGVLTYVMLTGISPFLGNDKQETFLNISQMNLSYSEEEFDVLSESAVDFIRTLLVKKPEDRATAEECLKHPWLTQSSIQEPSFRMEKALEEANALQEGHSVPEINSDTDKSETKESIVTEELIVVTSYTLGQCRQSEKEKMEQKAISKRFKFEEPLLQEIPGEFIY

- pIC50 [1]: 7.00
- pIC50 [2]: 7.03
Compound: Nc1cccc(-c2cc(/C=C3\SC(=S)NC3=O)c[nH]c2=O)c1

- kinase still bound, per cent of control [3]: 2.4%
- kinase still bound, per cent of control [4]: 13%
- kinase still bound, per cent of control [5]: 24%
- kinase still bound, per cent of control [6]: 29%
- kinase still bound, per cent of control [7]: 7%
- kinase still bound, per cent of control [8]: 26%
- kinase still bound, per cent of control [9]: 32%
- kinase still bound, per cent of control [10]: 0.95%
- kinase still bound, per cent of control [11]: 2.6%
- kinase still bound, per cent of control [12]: 1.8%
- kinase still bound, per cent of control [13]: 19%
- kinase still bound, per cent of control [14]: 25%
- kinase still bound, per cent of control [15]: 28%
- kinase still bound, per cent of control [16]: 17%
- kinase still bound, per cent of control [17]: 23%
- kinase still bound, per cent of control [18]: 30%
- kinase still bound, per cent of control [19]: 0.65%
Compound: COc1cc(N2CCC(N3CCN(C)CC3)CC2)ccc1Nc1ncc2c(n1)N1CCCC1CC(=O)N2C (stereo not drawn)

- pIC50 [1]: < 5.00
- pIC50 [2]: < 5.00
Compound: Nc1cccc(-c2cc(/C=C3\NC(=O)NC3=O)c[nH]c2=O)c1

- pIC50 [1]: < 5.00
- pIC50 [2]: < 5.00
Compound: O=C1NC(=O)/C(=C/c2c[nH]c(=O)c(-c3ccc(N4CCNCC4)nc3)c2)N1

- pIC50 [1]: 6.30
- pIC50 [2]: 6.45
Compound: Nc1ccc(-c2cc(/C=C3\SC(=O)NC3=O)c[nH]c2=O)cn1

- pIC50 [20]: 6.53
- pIC50 [21]: 6.02
- kinase still bound, per cent of control [22]: 4%
- kinase still bound, per cent of control [23]: 0.7%
- kinase still bound, per cent of control [24]: 1.6%
- kinase still bound, per cent of control [25]: 3.9%
- kinase still bound, per cent of control [26]: 32%
- kinase still bound, per cent of control [27]: 4.8%
- kinase still bound, per cent of control [28]: 2.6%
- kinase still bound, per cent of control [29]: 8.6%
- kinase still bound, per cent of control [30]: 25%
- kinase still bound, per cent of control [31]: 33%
- kinase still bound, per cent of control [32]: 13%
- kinase still bound, per cent of control [33]: 13%
- kinase still bound, per cent of control [34]: 1.6%
- kinase still bound, per cent of control [35]: 3%
- kinase still bound, per cent of control [36]: 2.2%
- kinase still bound, per cent of control [37]: 24%
- kinase still bound, per cent of control [38]: 30%
- kinase still bound, per cent of control [39]: 16%
- kinase still bound, per cent of control [18]: 29%
- kinase still bound, per cent of control [41]: 23%
Compound: CC(=O)Nc1ccc(-c2ccc(/C=C3\SC(=N)NC3=O)o2)c(O)c1
- kinase still bound, per cent of control [40]: 0.4%

- pIC50 [20]: 6.67
- pIC50 [1]: 6.28
- pIC50 [2]: 6.59
- pIC50 [21]: 6.82
Compound: CS(=O)(=O)Nc1ccc(-c2cc(/C=C3\SC(=O)NC3=O)c[nH]c2=O)cc1

- pIC50 [1]: 6.50
- pIC50 [2]: 6.79
Compound: N=C1NC(=O)/C(=C/c2c[nH]c(=O)c(-c3cccc(N)c3)c2)S1

- pIC50 [1]: 6.64
- pIC50 [2]: 6.75
Compound: O=C1NC(=O)/C(=C/c2c[nH]c(=O)c(-c3cnc4ccccc4c3)c2)S1

- pIC50 [1]: 6.41
- pIC50 [2]: 6.76
Compound: O=C1NC(=O)/C(=C/c2c[nH]c(=O)c(-c3ccc(N4CCN(Cc5ccccc5)CC4)nc3)c2)S1

- pIC50 [1]: 7.28
- pIC50 [2]: 7.35
Compound: O=C1NC(=O)/C(=C/c2c[nH]c(=O)c(-c3ccc(N4CCNCC4)cc3)c2)S1

- pIC50 [1]: 5.19
- pIC50 [2]: 5.31
Compound: O=C1NC(=O)/C(=C/c2c[nH]c(=O)c(-c3ccc(N4CCC(N5CCCC5)CC4)nc3)c2)S1

- pIC50 [42]: 6.47
- kinase still bound, per cent of control [43]: 22%
- pKd [3]: 7.55
- kinase still bound, per cent of control [3]: 3.2%
- kinase still bound, per cent of control [5]: 25%
- kinase still bound, per cent of control [7]: 11%
- kinase still bound, per cent of control [8]: 8.3%
- kinase still bound, per cent of control [10]: 0%
- kinase still bound, per cent of control [11]: 1.8%
- kinase still bound, per cent of control [44]: 26%
- kinase still bound, per cent of control [45]: 33%
- kinase still bound, per cent of control [12]: 3%
- kinase still bound, per cent of control [46]: 28%
- kinase still bound, per cent of control [37]: 31%
- kinase still bound, per cent of control [47]: 18%
- kinase still bound, per cent of control [48]: 6.8%
- kinase still bound, per cent of control [49]: 32%
- kinase still bound, per cent of control [50]: 29%
Compound: COc1cc(N2CCC(O)CC2)ccc1Nc1ncc2c(n1)N(C1CCCC1)CCC(=O)N2C

- pIC50 [20]: 5.72
- pIC50 [21]: 6.11
- kinase still bound, per cent of control [23]: 25%
- kinase still bound, per cent of control [24]: 0.45%
- kinase still bound, per cent of control [25]: 0.9%
- kinase still bound, per cent of control [28]: 22%
- kinase still bound, per cent of control [51]: 1.6%
- kinase still bound, per cent of control [30]: 32%
- kinase still bound, per cent of control [31]: 30%
- kinase still bound, per cent of control [32]: 32%
- kinase still bound, per cent of control [34]: 3.3%
- kinase still bound, per cent of control [52]: 22%
- kinase still bound, per cent of control [35]: 7.7%
- kinase still bound, per cent of control [36]: 4.8%
- kinase still bound, per cent of control [18]: 30%
Compound: CS(=O)(=O)Nc1ccc(-c2ccc(/C=C3\SC(=N)NC3=O)o2)c(O)c1
- kinase still bound, per cent of control [40]: 0.55%

- pIC50 [1]: < 5.00
- pIC50 [2]: < 5.00
Compound: O=C1NC(=O)/C(=C/c2c[nH]c(=O)c(-c3cncc4ccccc34)c2)S1
